The assay deals with P388 leukemia ip, CD2F1 mice, survival T/C. As to the kind of experiment: NCI In Vivo Anticancer Drug Screen. Data for tumor model P388 Leukemia (intraperitoneal) in CD2F1 (CDF1) mice. Particulars: endpoint: median survival time, higher = longer survival. The procedure, abridged:
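Mice carrying the transplanted tumor received test compound or vehicle. Survival was recorded in each group, and the value is the treated-group measurement divided by that of the vehicle-treated control group.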

Setting [1] is: dose: 50.0 mg/kg/injection, schedule: Q01DX005 (ip), vehicle: Klucel (hydroxypropylcellulose) (HPC).
Where [2] appears, read: dose: 100.0 mg/kg/injection, schedule: Q01DX005 (ip), vehicle: Klucel (hydroxypropylcellulose) (HPC).
Setting [3] is: dose: 200.0 mg/kg/injection, schedule: Q01DX005 (ip), vehicle: Klucel (hydroxypropylcellulose) (HPC).
[4] abbreviates: dose: 60.0 mg/kg/injection, schedule: Q01DX005 (ip), vehicle: Klucel (hydroxypropylcellulose) (HPC).
The mark [5] stands for this setting: dose: 120.0 mg/kg/injection, schedule: Q01DX005 (ip), vehicle: Klucel (hydroxypropylcellulose) (HPC).
[6] abbreviates: dose: 50.0 mg/kg/injection, schedule: Q01DX005 (ip), vehicle: saline.
The mark [7] stands for this setting: dose: 100.0 mg/kg/injection, schedule: Q01DX005 (ip), vehicle: saline.
The mark [8] stands for this setting: dose: 200.0 mg/kg/injection, schedule: Q01DX005 (ip), vehicle: saline.

The structures appear in SMILES notation. Values joined by “and” are separate entries in the source; they are usually repeats but may differ in a detail not shown here. Equal entries are not always repeated. Toxic doses and inconclusive results are not listed.

As to `COc1cccc2c1C(=O)c1c(O)c3c(c(O)c1C2=O)C[C@@](O)(C(=O)CO)C[C@@H]3OC1CC(N(C)C)C(O)C(C)O1` (some centres undefined), the T/C by setting is: (dose: 0.06 mg/kg/injection, schedule: Q01DX009 (ip), vehicle: water) 108 % of control; (dose: 0.13 mg/kg/injection, schedule: Q01DX009 (ip), vehicle: water) 119 % of control; (dose: 0.19 mg/kg/injection, schedule: Q04DX003 (ip), vehicle: water) 104 % of control; (dose: 0.25 mg/kg/injection, schedule: Q01DX009 (ip), vehicle: water) 150 % of control; (dose: 0.38 mg/kg/injection, schedule: Q04DX003 (ip), vehicle: water) 100 % of control; (dose: 0.5 mg/kg/injection, schedule: Q01DX009 (ip), vehicle: water) 160 % of control and 164 % of control. For the same compound, the T/C was 104 % of control (dose: 0.75 mg/kg/injection, schedule: Q04DX003 (ip), vehicle: water); 154 % of control (dose: 0.86 mg/kg/injection, schedule: Q04DX003 (ip), vehicle: water); 163 % of control (dose: 1.44 mg/kg/injection, schedule: Q04DX003 (ip), vehicle: water); 106 % of control (dose: 1.5 mg/kg/injection, schedule: Q04DX003 (ip), vehicle: water); 101 % of control (dose: 2.0 mg/kg/injection, schedule: Q01DX009 (ip), vehicle: water); 175 % of control (dose: 2.4 mg/kg/injection, schedule: Q04DX003 (ip), vehicle: water). For the same compound, the T/C was 153 % of control (dose: 2.5 mg/kg/injection, schedule: Q01DX001 (ip), vehicle: water); 113 % of control (dose: 3.0 mg/kg/injection, schedule: Q04DX003 (ip), vehicle: water); 117 % of control (dose: 4.0 mg/kg/injection, schedule: Q04DX003 (ip), vehicle: water); 153 % of control (dose: 5.0 mg/kg/injection, schedule: Q01DX001 (ip), vehicle: water); 123 % of control (dose: 6.0 mg/kg/injection, schedule: Q04DX003 (ip), vehicle: water); 97 % of control (dose: 6.67 mg/kg/injection, schedule: Q04DX003 (ip), vehicle: water).
`CNC(=O)N(CCO)/N=C\c1ccc([N+](=O)[O-])o1`: the T/C is, setting by setting: under setting [1], 99 % of control; under setting [2], 97 % of control; under setting [3], 103 % of control.
With `CCOC(=O)C(C)(C)S(=O)Nc1ccccc1` (centres undefined), the T/C under setting [4] is 99 % of control; the T/C under setting [5] is 99 % of control; the T/C (dose: 240.0 mg/kg/injection, schedule: Q01DX005 (ip), vehicle: Klucel (hydroxypropylcellulose) (HPC)) is 102 % of control.
Turning to `CN1CCCCC1CC(O)c1ccccc1` (centres undefined), the T/C is, setting by setting: (dose: 12.5 mg/kg/injection, schedule: Q01DX005 (ip), vehicle: Klucel (hydroxypropylcellulose) (HPC)) 103 % of control; (dose: 25.0 mg/kg/injection, schedule: Q01DX005 (ip), vehicle: Klucel (hydroxypropylcellulose) (HPC)) 105 % of control; under setting [1], 100 % of control.
For the compound `CCCCn1c(C)nc2c(cnn2C)c1=O`, the T/C is 114 % of control under setting [1], 101 % of control under setting [2] and 108 % of control under setting [3].
In the case of `CC(O)C(=O)N(C)CCCO` (centres undefined), the T/C is, setting by setting: under setting [6], 92 % of control; under setting [7], 101 % of control; under setting [8], 100 % of control.
On to `C/C=C(/C)C(=O)OC1CC(C)=CC(OC(=O)/C(C)=C\C)[C@]2(C)C1[C@](O)(C(C)C)C[C@H]2OC(C)=O` (some centres undefined), for which the T/C was 95 % of control (dose: 5.0 mg/kg/injection, schedule: Q01DX005 (ip), vehicle: Klucel + Tween-80); 97 % of control (dose: 10.0 mg/kg/injection, schedule: Q01DX005 (ip), vehicle: Klucel + Tween-80); 100 % of control (dose: 20.0 mg/kg/injection, schedule: Q01DX005 (ip), vehicle: Klucel + Tween-80); 91 % of control (dose: 40.0 mg/kg/injection, schedule: Q01DX005 (ip), vehicle: Klucel + Tween-80).
As to `CCOC(=O)C(C#N)C1(O)C(=O)Nc2ccccc21` (centres undefined), the T/C under setting [1] was 104 % of control, the T/C under setting [2] is 102 % of control and the T/C under setting [3] was 103 % of control.
Consider `CCOC(=O)c1cc2c(ccn2OC)[nH]1`, for which the T/C (dose: 100.0 mg/kg/injection, schedule: Q04DX003 (ip), vehicle: saline with Tween-80) is 102 % of control.
On to `COc1cc2c[n+]3c4c(cccc4c2cc1OC)CC3`, for which the T/C (dose: 25.0 mg/kg/injection, schedule: Q01DX009 (ip), vehicle: water) was 108 % of control; the T/C (dose: 50.0 mg/kg/injection, schedule: Q01DX009 (ip), vehicle: water) is 118 % of control; the T/C (dose: 100.0 mg/kg/injection, schedule: Q01DX009 (ip), vehicle: water) was 114 % of control.
For `C/C(=N\NC(=S)N(C)C)c1ncccn1`, the T/C was 107 % of control (dose: 12.5 mg/kg/injection, schedule: Q04DX003 (ip), vehicle: Klucel (hydroxypropylcellulose) (HPC)); 103 % of control (dose: 25.0 mg/kg/injection, schedule: Q04DX003 (ip), vehicle: Klucel (hydroxypropylcellulose) (HPC)); 105 % of control (dose: 50.0 mg/kg/injection, schedule: Q04DX003 (ip), vehicle: Klucel (hydroxypropylcellulose) (HPC)).
In the case of `COc1ccc(N=C2SCC(=O)N2NC(=O)CN2C(=O)c3ccccc3C2=O)cc1`, the T/C is 99 % of control (dose: 100.0 mg/kg/injection, schedule: Q01DX001 (ip), vehicle: saline with Tween-80); 97 % of control (dose: 200.0 mg/kg/injection, schedule: Q01DX001 (ip), vehicle: saline with Tween-80); 104 % of control (dose: 400.0 mg/kg/injection, schedule: Q01DX001 (ip), vehicle: saline with Tween-80).
For the compound `CN(C)CCC(=O)C(=Cc1ccccc1)C(=O)CCN(C)C`, the T/C under setting [6] was 114 % of control, the T/C under setting [7] is 99 % of control and the T/C under setting [8] was 101 % of control.
Take `CCOC(=O)c1ccc(NC(=S)N(CCC#N)C2CCCCC2)cc1`: the T/C by setting is: (dose: 50.0 mg/kg/injection, schedule: Q01DX009 (ip), vehicle: Klucel (hydroxypropylcellulose) (HPC)) 93 % of control; (dose: 100.0 mg/kg/injection, schedule: Q01DX009 (ip), vehicle: Klucel (hydroxypropylcellulose) (HPC)) 102 % of control; (dose: 200.0 mg/kg/injection, schedule: Q01DX009 (ip), vehicle: Klucel (hydroxypropylcellulose) (HPC)) 98 % of control.
In the case of `Nc1ccn(C2OC(CO)C3OP(=O)(O)OC32)c(=O)n1` (centres undefined), the T/C was 101 % of control (dose: 25.0 mg/kg/injection, schedule: Q01DX005 (ip), vehicle: water); 100 % of control (dose: 50.0 mg/kg/injection, schedule: Q01DX005 (ip), vehicle: water); 101 % of control (dose: 100.0 mg/kg/injection, schedule: Q01DX005 (ip), vehicle: water); 101 % of control (dose: 200.0 mg/kg/injection, schedule: Q01DX005 (ip), vehicle: water); 100 % of control (dose: 400.0 mg/kg/injection, schedule: Q01DX005 (ip), vehicle: water).
Consider `O=C1NNC(c2ccccc2)=Nc2ccccc21`, for which the T/C reads like this: (dose: 100.0 mg/kg/injection, schedule: Q04DX002 (ip), vehicle: saline with Tween-80) 96 % of control; (dose: 200.0 mg/kg/injection, schedule: Q04DX002 (ip), vehicle: saline with Tween-80) 96 % of control; (dose: 400.0 mg/kg/injection, schedule: Q04DX002 (ip), vehicle: saline with Tween-80) 94 % of control.
Turning to `COc1ccc(C#CC2(O)c3ccccc3C(O)(C#Cc3ccc(OC)cc3)c3ccccc32)cc1` (centres undefined), the T/C (dose: 50.0 mg/kg/injection, schedule: Q01DX009 (ip), vehicle: saline with Tween-80) is 98 % of control and the T/C (dose: 100.0 mg/kg/injection, schedule: Q01DX009 (ip), vehicle: saline with Tween-80) is 98 % of control.
Take `CC(=O)Nc1ccc(S(=O)(=O)n2c(=O)oc3ccc(Cl)cc32)cc1`: the T/C under setting [1] was 99 % of control, the T/C under setting [2] is 94 % of control and the T/C under setting [3] was 94 % of control.
Consider `CCCS(=O)(=O)CCC(=O)c1ccccc1`, for which the T/C runs as follows: (dose: 100.0 mg/kg/injection, schedule: Q04DX002 (ip), vehicle: saline) 101 % of control; (dose: 200.0 mg/kg/injection, schedule: Q04DX002 (ip), vehicle: saline) 107 % of control; (dose: 400.0 mg/kg/injection, schedule: Q04DX002 (ip), vehicle: saline) 102 % of control.
For `OCC1OC(N(O)c2ccc(Oc3c(Cl)cc(Cl)cc3Cl)cc2)C(O)C(O)C1O` (centres undefined), the T/C was 100 % of control under setting [4] and 100 % of control under setting [5].

The values are drawn from PubChem BioAssay AID330 (DTP/NCI, 2004).
